Reference: patent US12085575B2, “Compositions and methods for detecting proteinopathies” (BOARD OF SUPERVISORS OF LOUISIANA STATE UNIVERSITY AND …, priority 2011, dated 2024)
Residues, ends and D or L forms follow the SMILES beside them. *: point of attachment. Cbz = O=C(OCc1ccccc1)*

Test system: Mfn2
Assay: Mfn2 modification and degradation in A-T/LV shRNA cells treated with mitochondrial depolarizing agents
Format: cell-based, human
Settings: ISG15-silenced A-T cells; CCCP 25 uM with MG132 or Bafl 100 nM, 24 hr
Experimental: Immunoblotting Analysis of Mitochondrial Proteins—Mitochondria were isolated from A-T/LV control and ISG15 shRNA cells using the Miochondrial Isolation Kit (Thermo Scientific Company, 89874). The Dounce homogenization protocol described by the manufacturer was used to isolate mitochondria from cells. Mitochondrial pellets were resuspended in lysis buffer containing 50 mM Tris pH 7.5 and 4% (v/v) SDS. Samples were homogenized and boiled for 10 min. Lysates containing equal protein were then mixed with 6× Laemmli SDS sample buffer (3× final concentration). Samples were boiled again and mitochondrial proteins were analyzed by SDS-PAGE. Immunoblotting analyses using either anti-ISG15 (raised against human ISG15) (20), anti-ubiquitin (gift from Dr. Arthur Haas, at LSUHSC—New Orleans), or anti-mitofusin 2 (Abcam, ab88569) antibodies were carried out using the ECL Western procedure (Pierce, 34076) and the BioRad VersaDoc Imaging System (BioRad). Immunoblotting Analysis of HA Polyubiquitylated Proteins in Cells: Cells were transfected with HA-ubiquitin using the PolyFect transfection reagent (Qiagen, 301105). Twenty four hours after transfection, mitochondria were isolated as described above. Mitochondrial lysis, SDS-PAGE, and immunoblotting analysis to detect HA-ubiquitin conjugated proteins using anti-HA antibodies were carried out as described above. Immunoblotting Analysis of Mfn2 in Cells: Cells were lysed in lysis buffer containing 50 mM Tris-HCl, pH 7.5, 2% SDS, and protease inhibitor cocktail. Lysates were sonicated, boiled, and cleared by centrifugation. Lysates containing equal protein were then mixed with 6× Laemmli SDS sample buffer (3× final concentration). Samples were boiled again and proteins were separated by 15% SDS-PAGE. Immunoblotting analysis was carried out using anti-Mfn2 antibodies (Abcam) as described above. Intensity of the Mfn2 bands was quantitated using BioRad Quantity One software. Statistical analysis—Statistical analysis was carried out using GraphPad software.
Many outer mitochondrial membrane (OMM) proteins are ubiquitylated and degraded via the 26S proteasome prior to mitophagy in cells treated with the mitochondrial depolarizing agents (28,29). To test whether ISG15 inhibits polyubiquitylation of OMM proteins, we assessed the fate of Mfn2, an OMM protein and proteasome substrate, in A-T/LV-control and A-T/LV-ISG15-silenced cells treated with two different mitochondrial depolarizing agents, valinomycin and carbonylcyanide m-chlorophenylhydrazone (CCCP). Consistent with the literature reports (29,35,36), we observed a ladder of high molecular weight anti-Mfn2 cross-reactive bands above the 86 kDa Mfn2 protein band that is reminiscent of polyubiquitylation, in both ISG15-silenced and ISG15 overexpressing A-T cells (FIGS. 34 A and B, left panels). The endogenous level of these high molecular weight Mfn2 cross-reactive bands was remarkably higher in ISG15-silenced as compared to the ISG15-overexpressing A-T cells in the absence of any drugs (FIGS. 34A and B, first panels, compare lanes 1 and 4). […] In contrast, the level of these Mfn2 cross-reactive high molecular weight bands decreased under the same drug treatment conditions in ISG15-silenced A-T cells (FIGS. 34A and B, first panels, lanes 4-6, and the accompanying bar graph in the second panel for quantitation). […] The bar graphs in FIGS. 34A and B, third panels, show mean values of the ratio between free Mfn2 (86 kDa band) and actin proteins (±SEM) in CCCP-treated A-T/LV-control and ISG15 shRNA cells measured from eight independent experiments, and valinomycin-treated A-T/LV-control and ISG15 shRNA cells measured from three independent experiments respectively.

SMILES | free Mfn2 degradation in CCCP-treated cells
CO/C1=C\C(C)=C\[C@@H](C)[C@@H](O)[C@@H](C)C/C(C)=C/C=C/[C@H](OC)[C@@H]([C@@H](C)[C@@H](O)[C@H](C)[C@@]2(O)C[C@@H](O)[C@H](C)[C@@H](C(C)C)O2)OC1=O [Bafilomycin A1] | not
CC(C)C[C@@H](C=O)NC(=O)[C@H](CC(C)C)NC(=O)[C@H](CC(C)C)NC(=O)OCc1ccccc1 [MG132] (Cbz-Leu-Leu-Leu-aldehyde) | restored
